Drawing on patent publication US11130769B2 (Prelude Therapeutics Incorporated, priority 2018, dated 2021), this text covers IC50 and Ki for 17 compounds.

One assay deals with H929 cells. As to the kind of experiment: Cell viability assay (H929 10 FBS). The class given is cell-based. To be noted: Homo sapiens, NCI-H929, 24 hours, read-out: H929_10FBS IC50. In short, it runs like this:
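H929 cells, 4000/well, in RPMI 1640 with 10% FBS, sodium pyruvate, HEPES and glucose were exposed to compound 24 h at 37 °C. Viability read as luminescence after 30-60 min at RT with CellTiter-Glo or ATPlite 1 Step.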

The target in the next assay is MCL-1 (Homo sapiens (Human), UniProt Q07820). Kind of assay: Cell free Mcl-1:Bim affinity assay (fluorescence polarization competition). The format is binding. To be noted: 15 nM MCL-1, 5 nM FITC-Bim, 1 hour at room temperature; class symbols; read-out: BIM_Ki. The essentials:
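Compounds competed with FITC-labelled Bim peptide (5 nM) for MCL-1 (15 nM) in HEPES/NaCl buffer with 1% DMSO, 1 h at room temperature. Fluorescence polarization (535 nm emission) gave % inhibition versus DMSO and positive controls; IC50 from 10-point curves, converted to Ki by the Nikolovska-Coleska equation.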
In general terms: Fluorescence polarisation rises when a labelled molecule tumbles more slowly, as on binding a larger partner.

pIC50, pKi: −log10 of the molar value.

Chain of MCL-1 (Q07820 whole entry): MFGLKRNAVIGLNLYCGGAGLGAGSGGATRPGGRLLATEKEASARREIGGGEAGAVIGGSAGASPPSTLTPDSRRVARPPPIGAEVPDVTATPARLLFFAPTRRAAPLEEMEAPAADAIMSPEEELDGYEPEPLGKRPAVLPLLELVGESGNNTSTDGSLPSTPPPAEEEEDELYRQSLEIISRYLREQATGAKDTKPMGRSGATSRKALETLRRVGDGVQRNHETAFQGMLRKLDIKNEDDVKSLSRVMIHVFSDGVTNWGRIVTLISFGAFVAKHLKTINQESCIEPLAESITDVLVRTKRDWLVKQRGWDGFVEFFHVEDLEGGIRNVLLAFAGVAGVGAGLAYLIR

With `CO[C@@H]1/C=C/CN(C)[C@@H](C2CC2)C(=O)NS(=O)(=O)c2ccc3c(c2)N(C[C@@H]2CC[C@H]21)C[C@@]1(CCCc2cc(Cl)ccc21)CO3` [Example 127, (3R,6R,7R,8E,12S,22S)-6′-Chloro-12-cyclopropyl-7-methoxy-11-methyl-15,15-dioxo-spiro[20-oxa-15-thia-1,11,14-triazatetracyclo[14.7.2.0˜3,6.0˜19,24]pentacosa-8,16,18,24-tetraene-22,1′-tetralin]-13-one], the pIC50 (as a rule, the IC50 on a negative log10 scale, so that one unit is a factor of ten) in the assay on H929 cells was over 6.00. In addition, the pKi on MCL-1 is 7.00 to 9.00.

Turning to `CC1(C)OC/C=C/[C@H](OCC(=O)N2CC(F)(F)C2)[C@@H]2CC[C@H]2CN2C[C@@]3(CCCc4cc(Cl)ccc43)COc3ccc(cc32)S(=O)(=O)NC1=O` [Example 278, (3R,6R,7S,8E,22S)-6′-Chloro-7-[2-(3,3-difluoroazetidin-1-yl)-2-oxo-ethoxy]-12,12-dimethyl-15,15-dioxo-spiro[11,20-dioxa-15-thia-1,14-diazatetracyclo[14.7.2.03,6.019,24]pentacosa-8,16,18,24-tetraene-22,1′-tetralin]-13-one], the pIC50 in the assay with H929 cells was over 6.30. In addition, the pKi on MCL-1 is over 9.00.

On to `COC[C@H]1C(=O)NS(=O)(=O)c2ccc3c(c2)N(C[C@@H]2CC[C@H]2[C@H](O)/C=C/C[C@@H]1C)C[C@@]1(CCCc2cc(Cl)ccc21)CO3` [Example 88, (3R,6R,7R,8E,11S,12S,22S)-6′-Chloro-7-hydroxy-12-(methoxymethyl)-11-methyl-15,15-dioxo-spiro[20-oxa-15-thia-1,14-diazatetracyclo[14.7.2.03,6.019,24]pentacosa-8,16,18,24-tetraene-22,1′-tetralin]-13-one], for which the pIC50 with H929 cells is over 6.00. Further, on MCL-1, the pKi was over 9.00.

In the case of `CN1C/C=C/[C@H](OCCN2CCC(F)(F)C2)[C@@H]2CC[C@H]2CN2C[C@@]3(CCCc4cc(Cl)ccc43)COc3ccc(cc32)S(=O)(=O)NC(=O)C1(C)C` [Example 288, (3R,6R,7S,8E,22S)-6′-Chloro-7-[2-(3,3-difluoropyrrolidin-1-yl)ethoxy]-11,12,12-trimethyl-15,15-dioxo-spiro[20-oxa-15-thia-1,11,14-triazatetracyclo[14.7.2.03,6.019,24]pentacosa-8,16,18,24-tetraene-22,1′-tetralin]-13-one], the pIC50 in the assay on H929 cells was under 6.00. Also, the pKi on MCL-1 is 7.00 to 9.00.

As for `CC1(C)OC/C=C/[C@H](OC(=O)NCCc2cccnc2)[C@@H]2CC[C@H]2CN2C[C@@]3(CCCc4cc(Cl)ccc43)COc3ccc(cc32)S(=O)(=O)NC1=O` [Example 178, [(3R,6R,7S,8E,22S)-6′-Chloro-12,12-dimethyl-13,15,15-trioxo-spiro[11,20-dioxa-15λ^6-thia-1,14-diazatetracyclo[14.7.2.0^3,6.0^19,24]pentacosa-8,16,18,24-tetraene-22,1′-tetralin]-7-yl] N-[2-(3-pyridyl)ethyl]carbamate], the pIC50 in the assay with H929 cells was over 6.30. Also, at MCL-1, the pKi is over 9.00.

Consider `CN1C/C=C/[C@@H](O)[C@@H]2CC[C@H]2CN2C[C@@]3(CCCc4cc(Cl)ccc43)COc3ccc(cc32)S(=O)(=O)NC(=O)C12CCC2` [Example 138, (3R,6R,7R,8E,22S)-6′-Chloro-7-hydroxy-11-methyl-12,12-(1,3-propylene)-15,15-dioxo-spiro[20-oxa-15-thia-1,11,14-triazatetracyclo[14.7.2.03,6.019,24]pentacosa[8,16(25),17,19(24)]tetraene-22,1′-tetralin]-13-one], for which, in the assay on H929 cells, the pIC50 was over 6.00. For the same compound, the pKi at MCL-1 is 7.00 to 9.00.

Regarding `CC1(C)OC/C=C/[C@H](OC(=O)N[C@H]2CCOC2)[C@@H]2CC[C@H]2CN2C[C@@]3(CCCc4cc(Cl)ccc43)COc3ccc(cc32)S(=O)(=O)NC1=O` [Example 61, [(3R,6R,7S,8E,22S)-6′-Chloro-12,12-dimethyl-13,15,15-trioxo-spiro[11,20-dioxa-15-thia-1,14-diazatetracyclo[14.7.2.03,6.019,24]pentacosa-8,16,18,24-tetraene-22,1′-tetralin]-7-yl] N-[(3S)-tetrahydrofuran-3-yl]carbamate], the negative logarithm of the IC50 (pIC50) in the assay on H929 cells is over 6.30. Also, the pKi at MCL-1 was over 9.00.

In the case of `CO[C@@H]1/C=C\CN[C@H](C)C(=O)NS(=O)(=O)c2ccc3c(c2)N(C[C@@H]2CC[C@H]21)C[C@@]1(CCCc2cc(Cl)ccc21)CO3` [Example 122, (3R,6R,7R,8Z,12R,22S)-6′-Chloro-7-methoxy-12-methyl-15,15-dioxo-spiro[20-oxa-15-thia-1,11,14-triazatetracyclo[14.7.2.03,6.019,24]pentacosa-8,16(25),17,19(24)-tetraene-22,1′-tetralin]-13-one], in the assay on H929 cells, the pIC50 is under 6.00. Also, the pKi on MCL-1 is 7.00 to 9.00.

Consider `CN(C)[C@H]1CCN(C(=O)O[C@H]2/C=C/COC(C)(C)C(=O)NS(=O)(=O)c3ccc4c(c3)N(C[C@@H]3CC[C@H]32)C[C@@]2(CCCc3cc(Cl)ccc32)CO4)C1` [Example 154, [(3R,6R,7S,8E,22S)-6′-Chloro-12,12-dimethyl-13,15,15-trioxo-spiro[11,20-dioxa-15-thia-1,14-diazatetracyclo[14.7.2.03,6.019,24]pentacosa-8,16,18,24-tetraene-22,1′-tetralin]-7-yl] (3S)-3-(dimethylamino)pyrrolidine-1-carboxylate], for which the negative logarithm of the IC50 (pIC50) in the assay with H929 cells was over 6.30. In addition, on MCL-1, the pKi was over 9.00.

`CO[C@@H]1/C=C/CN[C@@H](C)C(=O)NS(=O)(=O)c2ccc3c(c2)N(C[C@@H]2CC[C@H]21)C[C@@]1(CCCc2cc(Cl)ccc21)CO3` [Example 117, (3R,6R,7R,8E,12S,22S)-6′-Chloro-7-methoxy-12-methyl-15,15-dioxo-spiro[20-oxa-15-thia-1,11,14-triazatetracyclo[14.7.2.03,6.019,24]pentacosa-8,16(25),17,19(24)-tetraene-22,1′-tetralin]-13-one]: in the assay with H929 cells, the pIC50 was under 6.00. On MCL-1, the pKi was 7.00 to 9.00.

On to `CN1CC[C@@H](NC(=O)O[C@H]2/C=C/COC(C)(C)C(=O)NS(=O)(=O)c3ccc4c(c3)N(C[C@@H]3CC[C@H]32)C[C@@]2(CCCc3cc(Cl)ccc32)CO4)C1` [Example 152, [(3R,6R,7S,8E,22S)-6′-Chloro-12,12-dimethyl-13,15,15-trioxo-spiro[11,20-dioxa-15-thia-1,14-diazatetracyclo[14.7.2.03,6.019,24]pentacosa-8,16,18,24-tetraene-22,1′-tetralin]-7-yl] N-[(3R)-1-methylpyrrolidin-3-yl]carbamate], for which the pIC50 in the assay with H929 cells was over 6.30. Moreover, the pKi on MCL-1 is over 9.00.

In the case of `C[C@@H]1C(=O)NS(=O)(=O)c2ccc3c(c2)N(C[C@@H]2CC[C@H]2[C@@H](O)/C=C/CN1C)C[C@@]1(CCCc2cc(Cl)ccc21)CO3` [Example 144, (3R,6R,7S,8E,12R,22S)-6′-Chloro-7-hydroxy-11,12-dimethyl-15,15-dioxo-spiro[20-oxa-15-thia-1,11,14-triazatetracyclo[14.7.2.03,6.019,24]pentacosa-8,16,18,24-tetraene-22,1′-tetralin]-13-one], the pIC50 in the assay on H929 cells was under 6.00. In addition, on MCL-1, the pKi is 7.00 to 9.00.

For `CC1(C)OC/C=C/[C@H](OC(=O)NCCN2CCOCC2)[C@@H]2CC[C@H]2CN2C[C@@]3(CCCc4cc(Cl)ccc43)COc3ccc(cc32)S(=O)(=O)NC1=O` [Example 180, [(3R,6R,7S,8E,22S)-6′-Chloro-12,12-dimethyl-13,15,15-trioxo-spiro[11,20-dioxa-15-thia-1,14-diazatetracyclo[14.7.2.03,6.019,24]pentacosa-8,16,18,24-tetraene-22,1′-tetralin]-7-yl] N-(2-morpholinoethyl)carbamate], in the assay on H929 cells, the pIC50 was over 6.30. Moreover, the pKi on MCL-1 is over 9.00.

Turning to `CCN1C/C=C/[C@@H](OC)[C@@H]2CC[C@H]2CN2C[C@@]3(CCCc4cc(Cl)ccc43)COc3ccc(cc32)S(=O)(=O)NC(=O)[C@H]1C` [Example 132, (3R,6R,7R,8E,12R,22S)-6′-Chloro-7-methoxy-11-ethyl-12-methyl-15,15-dioxo-spiro[20-oxa-15-thia-1,11,14-triazatetracyclo[14.7.2.03,6.019,24]pentacosa-8,16(25),17,19(24)-tetraene-22,1′-tetralin]-13-one], the negative-log IC50 (pIC50) with H929 cells was over 6.30. Besides, at MCL-1, the pKi is 7.00 to 9.00.

As for `CN(C)CCO[C@@H]1/C=C/COC(C)(C)C(=O)NS(=O)(=O)c2ccc3c(c2)N(C[C@@H]2CC[C@H]21)C[C@@]1(CCCc2cc(Cl)ccc21)CO3` [Example 273, (3R,6R,7R,8E,22S)-6′-Chloro-7-[2-(dimethylamino)ethoxy]-12,12-dimethyl-15,15-dioxo-spiro[11,20-dioxa-15-thia-1,14-diazatetracyclo[14.7.2.03,6.019,24]pentacosa-8,16,18,24-tetraene-22,1′-tetralin]-13-one], the pIC50 in the assay on H929 cells was over 6.00. Also, the pKi on MCL-1 was over 9.00.

As for `CN(C)C(=O)O[C@H]1/C=C/COC2(CC2)C(=O)NS(=O)(=O)c2ccc3c(c2)N(C[C@@H]2CC[C@H]21)C[C@@]1(CCCc2cc(Cl)ccc21)CO3` [Example 41, [(3R,6R,7S,8E,22S)-6′-Chloro-12,12-ethylene-13,15,15-trioxo-spiro[11,20-dioxa-15-thia-1,14-diazatetracyclo[14.7.2.03,6.019,24]pentacosa-8,16,18,24-tetraene-22,1′-tetralin]-7-yl] N,N-dimethylcarbamate], the pIC50 in the assay on H929 cells was over 6.30. In addition, the pKi on MCL-1 is over 9.00.

On to `CO[C@@H]1/C=C/CCC(=O)NS(=O)(=O)c2ccc3c(c2)N(C[C@@H]2CC[C@H]21)C[C@@]1(CCCc2cc(Cl)ccc21)CO3` [Example 74, (3R,6R,7R,8E,21S)-6′-Chloro-7-methoxy-14,14-dioxo-spiro[19-oxa-14-thia-1,13-diazatetracyclo[13.7.2.03,6.018,23]tetracosa-8,15,17,23-tetraene-21,1′-tetralin]-12-one], for which, in the assay on H929 cells, the pIC50 is under 6.00. Moreover, the pKi at MCL-1 was over 9.00.
